Experiment: Particle size distribution by Malvern Mastersizer S (volume basis)
Format: physicochemical
Conditions: first analysis after formation, diluted with water
Experimental: For the examples containing a substantial fraction of nanoparticles <100 nm in diameter, photon correlation spectroscopy was performed on a Brookhaven with an ALV5000 multiple tau correlator to determine the average particle size using a second order cumulant fit. In accordance with standard practice, the viscosity and index of refraction of the solvent at a volume percentage the same as after mixing were input as properties of the fluid. A Malvern Mastersizer S version 2.18 was also used to determine the particle size distribution based on volume, or similar to a weight. Likewise, the average particle size was based on volume or mass, D[4,3]. The data analysis used a polydisperse model and the Standard-Wet (3OHD) presentation that assumes the particle is suspended in water. Some samples were diluted with water for analysis. For all processing conditions, the water used was purified by RO and filtered and the temperature is given within 2° C. The polymer blocks were nominal molecular weight with the nomenclature (1000) describing a block nominally of 1000 g/mole. The blocks could have contained minor impurities (<10% by weight and typically <5% by weight) due to the method of synthesis.

Mean size D[4,3]: 120 μm | Yield of nanoparticles below 1060 nm: 9%
Compound: CC1=C(/C=C/C(C)=C/C=C/C(C)=C/C=C/C=C(C)/C=C/C=C(C)/C=C/C2=C(C)CCCC2(C)C)C(C)(C)CCC1 [β-carotene]

— patent publication US9956179B2, “Process and apparatuses for preparing nanoparticle compositions with amphiphilic copolymers and their use” (The Trustees of Princeton University, priority 2001, dated 2018)
